Type in all cases: cell-based, Human
In one experiment the test system is SKOV-3 cells. Description: Inhibitory effect of compounds on SKOV-3 cell proliferation. Particulars: read-out: IC50, inhibitory activity on SKOV-3 cell proliferation.
The next experiment has as its system MDA-MB-231 cells. Description: Inhibitory effect of compounds on MDA-MB-231 cell proliferation. Particulars: read-out: IC50, inhibitory activity on MDA-MB-231 cell proliferation. The procedure: (1) Cell plating: First, tumor cells MDA-MB-231 were cultured in corresponding medium, then digested with trypsin, centrifuged, resuspended, and counted, and the cells were adjusted to an appropriate concentration for plating.
(§1) Co-incubation of the compound of the present disclosure and tumor cells: after the cells adhered to the wall, the medium was removed, and the diluted bioactive molecule (the compound of the present disclosure) was added to the wells of the above plate, and incubated for 72 h.
(§2) In vitro cell viability detection: After the incubation, 50 μL of Cell Counting-Lite™ 2.0 reagent (Vazyme/Novazyme) was added to each well, shaken and mixed well in the dark, reacted for 10 minutes, and then the detection was carried out with a microplate reader (manufacturer: BMG, Model: PHERAStar-FS) for reading. The background RLU was obtained by using cell-free medium (with Cell Counting-Lite™), and the vehicle RLU was obtained by using cell-containing medium (with Cell Counting-Lite™). Cell inhibition rate=1−(sample RLU−background RLU)/(solvent RLU−background RLU)×100%. According to the four-parameter model fitting curve, the half maximal inhibitory concentration (IC50) of the compound was calculated, and the detection results were shown in Table 18.

The subject of the next experiment is HT29 cells. Nature of the experiment: Inhibitory effect of compounds on HT29 cell proliferation. Particulars: read-out: IC50, inhibitory activity on HT29 cell proliferation. The essentials:
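Adherent HT29 cells incubated with diluted compounds for 72 h; viability read by luminescence (Cell Counting-Lite 2.0, 10 min). Inhibition calculated against cell-free background and vehicle-treated cells; IC50 from four-parameter curve fit.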

The next experiment deals with Jeko-1 cells. Nature of the experiment: Inhibitory effect of compounds on Jeko-1 cell proliferation. Conditions: read-out: IC50, inhibitory activity on Jeko-1 cell proliferation. The procedure:
(1) Cell plating: First, tumor cells Jeko-1 were cultured in corresponding medium, then digested with trypsin, centrifuged, resuspended, and counted, and the cells were adjusted to an appropriate concentration for plating.
as §1
as §2, with “20.” for “18.”

Like-named read-outs stand apart in the source and are kept apart here.

Four compounds from patent US20250346606A1, “CAMPTOTHECIN COMPOUND, PREPARATION METHOD THEREFOR, AND APPLICATION THEREOF” (SICHUAN KELUN-BIOTECH BIOPHARMACEUTICAL CO., LTD., priority 2021, published 2025) can be followed below.

Consider `CC#C[C@@H](O)C(=O)N[C@H]1CCc2c(C)c(F)cc3nc4c(c1c23)Cn1c-4cc2c(c1=O)COC(=O)[C@]2(O)CC` [Example 1 (1-1-A), (R)—N-((1S,9S)-9-ethyl-5-fluoro-9-hydroxy-4-methyl-10,13-dioxo-2,3,9,10,13,15-hexahydro-1H,12H-benzo[de]pyrano[3′,4′:6,7]indolizino[1,2-b]quinolin-1-yl)-2-hydroxypent-3-yneamide], for which the IC50 in the experiment on SKOV-3 cells (Homo sapiens, SK-OV-3, 72 h) was determined as 7.81 nM; in the experiment with MDA-MB-231 cells (Homo sapiens, MDA-MB-231, 72 h) it was 364 nM; in the experiment on HT29 cells (Homo sapiens, HT-29, 72 h), 1.28 nM; in the experiment on Jeko-1 cells (Homo sapiens, JeKo-1, 72 h), 1.33 nM.
As to `CC[C@@]1(O)C(=O)OCc2c1cc1n(c2=O)Cc2c-1nc1cc(Cl)c(C)c3c1c2[C@@H](NC(=O)[C@@H](O)C1CC1)CC3` [Example 5 (2-12-A), (2S)—N-((1S,9S)-5-chloro-9-ethyl-9-hydroxy-4-methyl-10,13-dioxo-2,3,9,10,13,15-hexahydro-1H,12H-benzo[de]pyrano[3′,4′:6,7]indolizino[1,2-b]quinolin-1-yl)-2-cyclopropyl-2-hydroxyacetamide], the IC50 in the experiment on SKOV-3 cells (Homo sapiens, SK-OV-3, 72 h) worked out at 6.85 nM; in the experiment on MDA-MB-231 cells (Homo sapiens, MDA-MB-231, 72 h) it was 124 nM; in the experiment with HT29 cells (Homo sapiens, HT-29, 72 h) it was 3.01 nM.
Take `CC[C@@]1(O)C(=O)OCc2c1cc1n(c2=O)Cc2c-1nc1cc(Cl)c(C)c3c1c2[C@H](NC(=O)[C@@H](O)C1CC1)CC3` [Example 5 (2-12-B), (2S)—N-((1R,9S)-5-chloro-9-ethyl-9-hydroxy-4-methyl-10,13-dioxo-2,3,9,10,13,15-hexahydro-1H,12H-benzo[de]pyrano[3′,4′:6,7]indolizino[1,2-b]quinolin-1-yl)-2-cyclopropyl-2-hydroxyacetamide]: the IC50 in the experiment on SKOV-3 cells (Homo sapiens, SK-OV-3, 72 h) amounted to 4.99 nM; in the experiment with HT29 cells (Homo sapiens, HT-29, 72 h), 2.34 nM.
Turning to “(2S)—N-((1S,9S)-5-chloro-9-ethyl-9-hydroxy-4-methyl-10,13-dioxo-2,3,9,10,13,15-hexahydro-1H,12H-benzo[de]pyrano[3′,4′:6,7]indolizino[1,2-b]quinolin-1-yl)-2-hydroxypropylamine [Example 4 (2-7-A)]”, the IC50 with SKOV-3 cells (SKOV-3 human ovarian cancer cells, 72 h incubation, Cell Counting-Lite 2.0) worked out at 8.64 nM; with MDA-MB-231 cells (MDA-MB-231 human breast cancer cells, 72 h incubation, Cell Counting-Lite 2.0), 124 nM; with HT29 cells (HT29 human colon cancer cells, 72 h incubation, Cell Counting-Lite 2.0) it was 1.56 nM; in the experiment on Jeko-1 cells (Jeko-1 human mantle cell lymphoma cells, 72 h incubation, Cell Counting-Lite 2.0), 0.28 nM.
